Experimental data taken from patent US10111843B2, “Methods for treating brain injury” (HOUGH EAR INSTITUTE, priority 2011, dated 2018).

Assays:
[1] = stated as known; cited from earlier work
[2] = tested on: doublecortin; test: doublecortin immunostaining of hippocampus and entorhinal cortex after noise exposure; type: in vivo, chinchilla; settings: for level of doublecortin staining in the entorhinal cortex: HPN-07 300 mg/kg i.p.
Description: In this Example, three-5 year old chinchilla were freedom divided into 3 groups (6 chinchilla at each time point in each group). Chinchilla in noise exposure and noise plus treatment groups were exposed to 105 dB SPL Octave band noise centered at 4 kHz for 6 hours. Chinchilla in the noise plus treatment group were received HPN-07 treatment (300 mg/kg, i.p) started 4 hours after noise exposure, and then twice a day for the following 2 days. Chinchilla in the normal control and the noise exposed only groups were received carrier solutions (i.p.). Chinchilla were euthanized and perfused with 4% paraformaldehyde in PBS 21 days and 6 months after noise exposure. Brains were dissected out and post-fixed in the fixative for one week. The brains were Cryosected at 30 μm. Goat anti-doublecortin (1:100) was used to label neural precursor cells. Images were taken from CA1 regions of hippocampus and the entorhinal cortex with a light microscope. Doublecortin staining reflects neurogenerosis in the brain after neuron damage and death after noise exposure.

[3] = blood-brain barrier permeability by contrast-enhanced T1-weighted MRI; type: in vivo, rat; settings: given as 300 mg/kg NAC plus 300 mg/kg HPN-07 i.p., MRI seven days after initial drug administration
Description: Male Long-Evans pigmented rats (with body weights between 360 and 400 g, Harlan Laboratories, Indianapolis, Ind.) were injected intraperitoneally with a combination of 300 mg/kg of NAC plus 300 mg/kg of HPN-07, which were both dissolved in 5 ml/kg of physiological saline solution. […] Drug or saline was administered once on the first day and then twice a day for the following two days.
Seven days after the initial drug administration magnetic resonance imaging (MRI) was used to detect the disruption of the blood-brain barrier (BBB). Contrast enhancement noted on post-contrast T1-weighted MRI after injection of contrast agent (Magnevist=GdDTPA) is indicative of blood-brain barrier disruption. The hyper intensity on the T1-weighted images is resulting from leakage of the gadolinium based contrast agent injected at the baseline.
The MRI parameters and image scale factor were kept constant for all T1-weighted images. The images were evaluated both visually and by region-of-interest (ROI) measurement. ROT measurements were obtained at the time-points (before and after injection of contrast material on T1-weighted images) brain.

Molecule	blood-brain barrier permeability [1]	level of doublecortin staining in the entorhinal cortex ([2]; 6 months post noise exposure)	density of doublecortin staining in the hippocampus ([2]; 6 months post noise exposure, HPN-07 300 mg/kg i.p. from 4 hours after noise)	level of doublecortin staining in the entorhinal cortex ([2]; 21 days post noise exposure)	blood-brain barrier permeability (% change in ROI signal intensity after Magnevist) [3]	blood-brain barrier permeability (% change in ROI signal intensity after Magnevist) ([3]; listed as 2,4-disulfonyl PBN)
CC(=O)N[C@@H](CS)C(=O)O [NAC, N-acetylcysteine]	known to not increase blood-brain barrier permeability					
2,4-disulfonyl α-phenyl tertiary butyl nitrone [HPN-07]		decreases the level of doubtecortin staining	comparable to the control subjects	decreases the level of doubtecortin staining	effectively increases blood-brain barrier permeability	unexpectedly increases blood brain permeability
